From patent publication US12281107B2, “SET8 lysine methyltransferase inhibitor and preparation method and application thereof” (HAINAN YILING MEDICAL INDUSTRY & DEVELOPMENT Co., Ltd., priority 2019, dated 2025)

Assays:
[1] = molecular target: T1, lysine methyltransferase SET8 (Homo sapiens, UniProt Q9NQR1); experiment: SET8 methyltransferase inhibitor screening assay kit (Cayman), fluorescence; type: biochemical; conditions: incubation at 37° C. for 10 min; inhibitor concentration not given
T1 construct: purchased Cayman Company
T1 sequence (Q9NQR1 1-393): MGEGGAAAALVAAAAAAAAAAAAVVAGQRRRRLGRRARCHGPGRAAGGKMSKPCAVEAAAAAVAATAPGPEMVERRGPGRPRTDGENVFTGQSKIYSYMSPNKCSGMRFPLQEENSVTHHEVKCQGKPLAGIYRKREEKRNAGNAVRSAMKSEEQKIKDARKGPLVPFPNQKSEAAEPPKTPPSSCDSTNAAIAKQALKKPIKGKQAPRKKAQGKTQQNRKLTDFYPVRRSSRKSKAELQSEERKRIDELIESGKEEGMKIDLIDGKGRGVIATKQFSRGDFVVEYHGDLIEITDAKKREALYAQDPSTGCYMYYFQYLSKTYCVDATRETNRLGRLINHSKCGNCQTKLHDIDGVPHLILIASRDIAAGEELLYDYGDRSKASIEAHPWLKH
Method: The steps of activity detection are completely based on the SET8 methyltransferase inhibitor screening assay kit of Cayman Company. In short, reagents in the kit are added to the 96-well plate to be tested according to the Table A below.
Then 10 μL of SET8 albumen protein is added to each well, and the reaction begins. After incubation at 37° C. for 10 min, the fluorescence intensity (A) value is measured at the excitation wavelength of 535 nm and the […] of 590 nm. the inhibition rate of the compound is calculated according to the following formula: Inhibition rate %=(Anormal−Asample)/)Normal*100%, and the inhibition rate of each inhibitor on lysine methyltransferase is shown in Table 1.

glioma cell line SH-SY5Y = experiment: CCK-8 cell proliferation inhibition test, SH-SY5Y; type: cell-based; conditions: Homo sapiens, 48 h; for inhibition at 100 µM: read-out: IC % for 100 μM; for IC50: CCK-8
Method: (§1) 1. Experimental Method: […] cell line SH-SY5Y, colorectal cancer cell line SW480 and liver cancer cell line HepG2 are respectively cultured in an RPMI-1640 medium containing 10% calf serum at 37° C. in a 5% CO2 incubator. The […] method is adopted for cell proliferation inhibition test, and the main operation is as follows: taking the tumor cell line in the logarithmic phase, digesting with 0.25% trypsin, preparing an RPMI-1640 medium containing 10% newborn calf serum into a cell suspension of 6×10^4 cells/mL, and inoculating the cell suspension into a 96-well plate, with 100 μL per well. Culturing at 37° C. and 5% CO2 saturated humidity for 12 h. After adherence, absorbing the culture supernatants in the wells, and adding the sample solution prepared from the RPMI-1640 medium containing 1% calf serum to each well so that the final concentrations of the samples are 100 μM, 30 μM, 10 μM, 3 μM, 1 μM, and 0.3 μM respectively. With 3 wells in parallel for each concentration, continuing culturing for 48 h, then adding 10 μL of CCK-8 solution (Dalian Meilun, MA0218) to each well, and continuing incubating at 37° C. and 5% CO2 for 4 h. Selecting 470 nm on the enzyme-linked immunosorbent assay apparatus to measure the light absorption value of each well, and setting a blank group (only adding a culture solution containing cells) and a control group (using the culture solution to replace drugs) to calculate the cell proliferation inhibition rate. Inhibition rate (%)=(1−average OD value of 3 wells in experimental group/average OD value of 3 wells in control group)×100%. With the inhibition rate as an ordinate, a regression curve is drawn to calculate the IC50 value of the sample. Graphpad prism 7.0 software are adopted for data processing and statistical analysis by.

[2] = tested on: liver cancer cell line HepG2; experiment: CCK-8 cell proliferation inhibition test, HepG2; type: cell-based; conditions: for IC % for 100 μM: HepG2, 100 μM, 48 h; for tumor cell proliferation inhibitory activity (in words): HepG2, summary of Table 2; for IC50: Homo sapiens, HepG2, 48 h, CCK-8
Method: as §1

[3] = tested on: colorectal cancer cell line SW480; experiment: CCK-8 cell proliferation inhibition test, SW480; type: cell-based; conditions: for IC50: Homo sapiens, SW480, 48 h, CCK-8; for IC % for 100 μM: SW480, 100 μM, 48 h; for tumor cell proliferation inhibitory activity (in words): SW480, summary of Table 2
Method: as §1

SMILES | Inhibition Rate (%) [1] [%] | IC50 (glioma cell line SH-SY5Y) [µM] | IC50 [2] [µM] | IC50 [3] [µM] | inhibition at 100 µM (glioma cell line SH-SY5Y) [%] | IC % for 100 μM [2] [%] | tumor cell proliferation inhibitory activity (in words) [2] | IC % for 100 μM [3] [%] | tumor cell proliferation inhibitory activity (in words) [3]
COc1ccc(Cc2nc(C3CNCCO3)n(C3CCN(C)CC3)n2)cc1 (stereo not drawn) [Compound 1, 2-(3-(4-methoxybenzyl)-1-(1-methylpiperidin-4-yl)-1H-1,2,4-triazol-5-yl)morpholine] | 58.4 | 94.7 |  |  | 52.5 |  |  |  | 
COc1ccc(Cc2nc(C3CNCCO3)n(Cc3ccc(OC)cc3)n2)cc1 (stereo not drawn) [Compound 2, 2-(1,3-bis(4-methoxybenzyl)-1H-1,2,4-triazol-5-yl)morpholine] | 74.2 | 13.7 | 17.6 | 16.4 | 78.3 | 51.5 | good tumor cell proliferation inhibitory activity | 75.8 | good tumor cell proliferation inhibitory activity
COc1ccc(Cc2nc(C3CNCCO3)n(C3CCCCC3)n2)cc1 (stereo not drawn) [Compound 3, 2-(1-cyclohexyl-3-(4-methoxybenzyl)-1H-1,2,4-triazol-5-yl)morpholine] | 70.0 | 22.6 | 19.2 | 18.3 | 76.5 | 48.8 | good tumor cell proliferation inhibitory activity | 73.2 | good tumor cell proliferation inhibitory activity
COc1ccc(Cc2nc(C3CNCCO3)n(-c3ccccc3)n2)cc1 (stereo not drawn) [Compound 4, 2-(3-(4-methoxybenzyl)-1-phenyl-1H-1,2,4-triazol-5-yl)morpholine] | 71.5 | 78.6 |  |  | 57.8 |  |  |  | 
COc1ccc(Cc2nc(C3CNCCO3)n(-c3cccc(C)c3)n2)cc1 (stereo not drawn) [Compound 5, 2-(3-(4-methoxybenzyl)-1-(m-methylphenyl)-1H-1,2,4-triazol-5-yl)morpholine] | 70.2 | 81.3 |  |  | 57.1 |  |  |  | 
COc1ccc(Cc2nc(C3CNCCO3)n(-c3ccccn3)n2)cc1 (stereo not drawn) [Compound 6, 2-(3-(4-methoxybenzyl)-1-(pyridin-2-yl)-1H-1,2,4-triazol-5-yl)morpholine] | 70.3 | 76.5 |  |  | 58.6 |  |  |  | 
COc1ccc(Cc2nc(C3CNCCO3)n(-c3cnccn3)n2)cc1 (stereo not drawn) [Compound 7, 2-(3-(4-methoxybenzyl)-1-(pyrazin-2-yl)-1H-1,2,4-triazol-5-yl)morpholine] | 70.8 | 78.4 |  |  | 57.9 |  |  |  | 
COc1ccc(Cc2nc(C3CNCCO3)n(C)n2)cc1 (stereo not drawn) [Compound 8, 2-(3-(4-methoxybenzyl)-1-methyl-1H-1,2,4-triazol-5-yl)morpholine] | 69.3 | 73.1 |  |  | 59.5 |  |  |  | 
COc1ccc(Cc2nc(C3CN(Cc4ccccc4)CCO3)n(C3CCN(C)CC3)n2)cc1 (stereo not drawn) [Compound 9, 4-benzyl-2-(3-(4-methoxybenzyl)-1-(1-methylpiperidin-4-yl)-1H-1,2,4-triazol-5-yl)morpholine] | 72.3 | 77.3 |  |  | 58.5 |  |  |  | 
COc1ccc(Cc2nc(C3CCCCO3)n(C3CCN(C)CC3)n2)cc1 (stereo not drawn) [Compound 10, 4-(3-(4-methoxybenzyl)-5-(tetrahydro-2H-pyran-2-yl)-1H-1,2,4-triazol-5-yl)-1-methylpiperidin] | 43.6 | 123 |  |  | 43.3 |  |  |  | 

The next lines start with results.

Inhibition Rate (%) [1] [%] | IC50 (glioma cell line SH-SY5Y) [µM] | IC50 [2] [µM] | IC50 [3] [µM] | SMILES | inhibition at 100 µM (glioma cell line SH-SY5Y) [%] | IC % for 100 μM [2] [%] | tumor cell proliferation inhibitory activity (in words) [2] | IC % for 100 μM [3] [%] | tumor cell proliferation inhibitory activity (in words) [3]
36.8 | 132 |  |  | COc1ccc(Cc2nc(CN)n(C3CCN(C)CC3)n2)cc1 [Compound 11, (3-(4-methoxybenzyl)-1-(1-methylpiperidin-4-yl)-1H-1,2,4-triazol-5-yl)methylamine] | 39.9 |  |  |  | 
67.8 | 71.8 |  |  | COc1ccc(Cc2nc(C3CCCCO3)n(Cc3ccc(OC)cc3)n2)cc1 (stereo not drawn) [Compound 12, 1,3-bis(4-methoxybenzyl)-5-(tetrahydro-2H-pyran-2-yl)-1H-1,2,4-triazole] | 60.1 |  |  |  | 
32.5 | 138 |  |  | COc1ccc(Cn2nc(-c3ccccc3)nc2C2CNCCO2)cc1 (stereo not drawn) [Compound 13, 2-(1-(4-methoxybenzyl)-3-phenyl-1H-1,2,4-triazol-5-yl)morpholine] | 37.8 |  |  |  | 
59.2 | 92.5 |  |  | CN1CCC(n2nc(Cc3ccccc3)nc2C2CNCCO2)CC1 (stereo not drawn) [Compound 14, 2-(3-benzyl-1-(1-methylpiperidin-4-yl)-1H-1,2,4-triazol-5-yl)morpholine] | 53.2 |  |  |  | 
53.9 | 95.3 |  |  | CN1CCC(n2nc(-c3ccccc3)nc2C2CNCCO2)CC1 (stereo not drawn) [Compound 15, 2-(1-(1-methylpiperidin-4-yl)-3-phenyl-1H-1,2,4-triazol-5-yl)morpholine] | 52.3 |  |  |  | 
54.8 | 93.7 |  |  | Cc1ccc(-c2nc(C3CNCCO3)n(C3CCN(C)CC3)n2)cc1 (stereo not drawn) [Compound 16, 2-(1-(1-methylpiperidin-4-yl)-3-(p-methylphenyl)-1H-1,2,4-triazol-5-yl)morpholine] | 52.8 |  |  |  | 
58.3 | 92.1 |  |  | Cc1cccc(-c2nc(C3CNCCO3)n(C3CCN(C)CC3)n2)c1 (stereo not drawn) [Compound 17, 2-(1-(1-methylpiperidin-4-yl)-3-(m-methylphenyl)-1H-1,2,4-triazol-5-yl)morpholine] | 53.7 |  |  |  | 
43.8 | 126 |  |  | COc1ccc(Cc2nc(C3CCCCC3)n(C3CCN(C)CC3)n2)cc1 [Compound 18, 4-(5-cyclohexyl-3-(4-methoxybenzyl)-1H-1,2,4-triazol-5-yl)-1-methylpiperidin] | 41.9 |  |  |  | 
45.2 | 118 |  |  | COc1ccc(Cc2nc(C(C)(C)C)n(C3CCN(C)CC3)n2)cc1 [Compound 19] | 44.8 |  |  |  | 
76.9 | 10.4 | 13.6 | 11.3 | COc1ccc(Cc2nc(C)n(C3CCN(C)CC3)n2)cc1 [Compound 20] | 84.7 | 68.7 | good tumor cell proliferation inhibitory activity | 79.6 | good tumor cell proliferation inhibitory activity
43.7 | 114 |  |  | COc1ccc(Cc2nc(C3CCCCC3)n(Cc3ccc(OC)cc3)n2)cc1 [Compound 21, 5-cyclohexyl-1,3-dis(4-methoxybenzyl)-1H-1,2,4-triazole] | 46.2 |  |  |  | 
